Read-outs that look alike come from different tables or passages of the source.

These results are taken from patent publication US9561245B2, “Combination treatments for melanoma” (priority 2012, dated 2017).

Assay [1] deals with M481, M487 and M610 melanoma cells carrying BRAF V600E mutations. The assay is classed as in vivo, NSG mice.
Experimental: M481, M487 and M610 melanoma cells carrying BRAF V600E mutations were implanted in s.c. tissue on right flanks of NSG mice. When tumors became palpable, mice were randomized to four different treatments. […] Control mice received vehicle only (200 μl 0.5% promethylcellulose, 0.2% Tween80 and 5% DMSO per day). Tumors were measured every 2-3 days with calipers.
In these experiments metastatic melanoma cells were injected subcutaneously in the right flanks of immunocompromised NSG mice. When tumors became palpable, mice were randomized to four different treatments. […] Control mice received vehicle only (200 μl 0.5% promethylcellulose, 0.2% Tween80 and 5% DMSO per day). Tumors were measured every 2-3 days with calipers.
A further assay deals with MSK1 (Homo sapiens, UniProt O75582). The settings on record: cited from earlier work.
In assay [2] the test system is M481 metastatic melanoma cells. The assay can be described thus: M481 melanoma xenograft tumor growth in NSG mice (i.p. agents, PLX 4720 chow). The assay is classed as in vivo.
Experimental: M481 metastatic melanoma cells were implanted in s.c. tissue on right flanks of NSG mice. […] For PLX4720 treatment mice were switched to either a chow diet containing 417 mg/kg PLX4720 or the control chow containing no compound. Tumors were measured every 2-3 day with calipers. Mean±SD is reported (* P<0.05, *** P<0.0005, ns: not significant; two-tailed Student's t test). FIG. 1B, Representative bioluminescence images of melanomas at day 14.
M481 metastatic melanoma cells were implanted in s.c. tissue on right flanks of NSG mice. When tumors became palpable mice were i.p. injected with RO 31-8220 (3 mg/kg) or DMSO. […] Tumors were measured every 2-3 day with calipers. […]
M481 metastatic melanoma cells were implanted in s.c. tissue on right flanks of NSG mice. […] Tumors were measured every 2-3 day with calipers. […]
Transplanting melanoma cells. After sorting, cells were counted and resuspended in staining medium (L15 medium containing 1 mg/ml BSA, 1% penicillin/streptomycin and 10 mM HEPES [pH7.4]) with 25% high protein Matrigel (product 354248; BD Biosciences). […]
Bioluminescence imaging (BLI). Mice were injected with 100 luciferase-GFP+ cells on the right flank and monitored until tumor diameters approached 20 mm, at which point they were imaged along with an uninjected control mouse on an IVIS Imaging System 200 Series (Calliper Life Sciences) using Living Image software. […]
The next assay concerns JNK. Conditions: rat adipocytes and L6 myotubes; cited from earlier work.
The next assay concerns ERK2. The settings on record: rat adipocytes and L6 myotubes; cited from earlier work.
For a further assay, the system named is glycogen synthase. The settings on record: rat adipocytes and L6 myotubes; cited from earlier work.
In a further assay the test system is PKGα. Conditions: cited from earlier work.
In another assay the test system is MAPK. Conditions: rat adipocytes and L6 myotubes; cited from earlier work.

Chain of MSK1 (O75582 whole entry, species assumed): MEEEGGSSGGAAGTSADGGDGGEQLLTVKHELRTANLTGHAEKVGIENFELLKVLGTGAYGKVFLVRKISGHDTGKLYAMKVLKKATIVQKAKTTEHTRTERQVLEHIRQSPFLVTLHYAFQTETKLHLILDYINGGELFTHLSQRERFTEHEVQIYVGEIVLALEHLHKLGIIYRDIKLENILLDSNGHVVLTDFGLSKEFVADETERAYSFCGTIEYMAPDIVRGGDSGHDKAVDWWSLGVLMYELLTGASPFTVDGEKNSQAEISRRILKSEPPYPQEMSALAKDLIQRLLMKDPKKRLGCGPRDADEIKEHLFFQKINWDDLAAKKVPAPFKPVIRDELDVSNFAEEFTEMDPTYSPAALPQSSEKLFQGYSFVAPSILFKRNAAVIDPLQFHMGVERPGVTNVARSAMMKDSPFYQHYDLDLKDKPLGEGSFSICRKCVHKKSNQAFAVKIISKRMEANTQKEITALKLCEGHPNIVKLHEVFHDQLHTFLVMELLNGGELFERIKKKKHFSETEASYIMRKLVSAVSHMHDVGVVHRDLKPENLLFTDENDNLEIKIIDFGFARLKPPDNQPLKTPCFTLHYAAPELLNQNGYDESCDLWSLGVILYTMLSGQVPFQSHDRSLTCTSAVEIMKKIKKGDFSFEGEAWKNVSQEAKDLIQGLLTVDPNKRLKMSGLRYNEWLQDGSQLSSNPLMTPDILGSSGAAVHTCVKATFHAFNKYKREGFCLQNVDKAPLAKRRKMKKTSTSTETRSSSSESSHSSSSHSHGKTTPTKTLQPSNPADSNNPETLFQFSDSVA

Take `CCCS(=O)(=O)Nc1ccc(F)c(C(=O)c2c[nH]c3ncc(Cl)cc23)c1F` [PLX 4720]: the “growth of human melanoma xenografts” value in assay [1] (PLX4720 20 mg/kg/day by oral gavage alone) is on record as “slowed the growth”.

With `Cn1cc(C2=C(c3cn(CCCSC(=N)N)c4ccccc34)C(=O)NC2=O)c2ccccc21` [RO 31-8220], the IC50 is 8 nM at MSK1 and 33 nM in the assay with PKGα. The “in vivo tumor growth” value in assay [2] (RO 31-8220 3 mg/kg i.p. alone) is on record as “inhibited the growth of a melanoma as well as the BRAF inhibitor (PLX 4720)”. Besides, in the assay with JNK, the “effect on JNK” value is recorded as “Activates”. Besides, in the assay on ERK2, the “effect on ERK2” value was “inhibits”. Further, the “effect on glycogen synthase” value in the assay with glycogen synthase was “Activates”. Besides, in the assay with MAPK, the “effect on MAPK” value is “inhibits”.

In the case of `C[C@H]1O[C@@H](O[C@H]2[C@@H](O)C[C@H](O[C@H]3[C@@H](O)C[C@H](O[C@H]4CC[C@@]5(C)[C@H](CC[C@@H]6[C@@H]5CC[C@]5(C)[C@@H](C7=CC(=O)OC7)CC[C@]65O)C4)O[C@@H]3C)O[C@@H]2C)C[C@H](O)[C@@H]1O` [digitoxin], in assay [2] (digitoxin 0.5 mg/kg i.p. alone, s.c. xenograft, calipers every 2-3 day), the “in vivo tumor growth” value is on record as “inhibited the growth of a melanoma better than BRAF inhibitor (PLX 4720)”. The “growth of human melanoma xenografts” value in assay [1] (digitoxin 0.5 mg/kg/day by oral gavage alone) is given as “slowed the growth”.
